According to US20250382344A1, “Soluble GLP1/GIP/NPY2 Receptor Triple Agonists” (Boehringer Ingelheim International GmH, priority 2024, published 2025):
Read-outs that look alike come from different tables or passages of the source.

How the values were obtained:
hGLP1R = target: T1, hGLP1R (Homo sapiens, UniProt P43220); experiment: hGLP1R CreLuc assay in 0.5% and 100% plasma (HEK-293 CRE-luciferase reporter cells); type: cell-based; conditions: HEK-293 reporter cells
T1 construct: expressed in transfected cells; host or cells: HEK-293 CRE-luciferase reporter cells

[1] = Solubility in 0.1 M phosphate buffer at pH 7; type: physicochemical; conditions: 0.1 M phosphate buffer at pH 7, 10 mg/mL final peptide concentration, shaking 2 hours at room temperature, peptides as TFA-salts, measured sample pH 6.5-7.0; for solubility: read-out: Solubility
hGIPR = target: T2, hGIPR (Homo sapiens, UniProt P48546); experiment: hGIPR CreLuc assay in 0.5% and 100% plasma (CHO CRE-luciferase reporter cells); type: cell-based
T2 construct: expressed in transfected cells; host or cells: CHO CRE-luciferase reporter cells
T2 sequence (P48546 22-466): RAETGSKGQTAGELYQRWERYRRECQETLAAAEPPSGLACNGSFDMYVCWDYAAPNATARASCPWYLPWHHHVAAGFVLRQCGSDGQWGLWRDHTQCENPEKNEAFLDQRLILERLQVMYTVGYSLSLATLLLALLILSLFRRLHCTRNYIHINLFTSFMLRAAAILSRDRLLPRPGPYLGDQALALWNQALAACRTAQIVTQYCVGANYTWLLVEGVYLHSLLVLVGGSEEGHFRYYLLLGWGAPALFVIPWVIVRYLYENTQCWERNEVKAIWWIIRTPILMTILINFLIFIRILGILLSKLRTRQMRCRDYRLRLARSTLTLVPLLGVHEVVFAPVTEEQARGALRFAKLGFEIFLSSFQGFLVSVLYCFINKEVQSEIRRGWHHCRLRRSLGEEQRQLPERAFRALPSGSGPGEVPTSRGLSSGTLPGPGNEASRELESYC

[2] = 0.5% human plasma, read-out: hGLP1R 0.5% hP
[3] = 0.5% human plasma, read-out: hGIPR 0.5% hP
[4] = 100% human plasma, read-out: hGLP1R 100% hP
[5] = 100% human plasma, read-out: hGIPR 100% hP

T1 sequence (P43220 24-463): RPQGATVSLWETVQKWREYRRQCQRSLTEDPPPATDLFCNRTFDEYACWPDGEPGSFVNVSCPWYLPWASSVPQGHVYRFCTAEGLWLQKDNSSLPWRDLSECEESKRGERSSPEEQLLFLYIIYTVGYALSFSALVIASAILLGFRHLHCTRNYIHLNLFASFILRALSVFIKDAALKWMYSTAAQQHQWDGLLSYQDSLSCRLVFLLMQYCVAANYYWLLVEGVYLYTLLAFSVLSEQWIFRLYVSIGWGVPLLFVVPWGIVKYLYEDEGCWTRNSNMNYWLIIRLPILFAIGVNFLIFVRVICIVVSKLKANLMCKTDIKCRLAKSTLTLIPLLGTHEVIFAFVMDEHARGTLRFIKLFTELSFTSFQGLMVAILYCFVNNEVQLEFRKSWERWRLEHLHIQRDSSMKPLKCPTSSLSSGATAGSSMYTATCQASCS

EC50 (hGLP1R; [2]) [pM] | solubility at 2 h [1] [µg/mL] | EC50 (hGIPR; [3]) [pM] | solubility [1] [µg/mL] | EC50 (hGLP1R; [4]) [pM] | EC50 (hGIPR; [5]) [pM] | SMILES
500 | 5000 | 500 |  |  |  | CC[C@H](C)[C@H](NC(=O)[C@H](CC(C)C)NC(=O)[C@H](Cc1c[nH]cn1)NC(=O)[C@H](CCCNC(=N)N)NC(=O)[C@@H](NC(=O)[C@H](Cc1ccccc1)NC(=O)[C@H](CCC(=O)O)NC(=O)C(C)(C)NC(=O)[C@H](CCC(N)=O)NC(=O)[C@H](C)NC(=O)[C@H](CCC(=O)O)NC(=O)[C@H](CCC(=O)O)NC(=O)[C@H](CCC(=O)O)NC(=O)[C@H](CC(C)C)NC(=O)C(C)(C)NC(=O)[C@@H](NC(=O)[C@H](CO)NC(=O)[C@H](Cc1ccc(O)cc1)NC(=O)[C@H](CC(=O)O)NC(=O)[C@H](CO)NC(=O)[C@@H](NC(=O)[C@H](Cc1ccccc1)NC(=O)[C@@H](NC(=O)CNC(=O)[C@H](CCC(=O)O)NC(=O)C(C)(C)NC(=O)[C@@H](N)Cc1ccc(O)cc1)[C@@H](C)O)[C@@H](C)O)[C@@H](C)CC)C(C)C)C(=O)N[C@@H](CC(N)=O)C(=O)N[C@@H](CCCCNC(=O)COCCOCCNC(=O)COCCOCCNC(=O)CC[C@H](NC(=O)CCCCCCCCCCCCCCCCC(=O)O)C(=O)O)C(=O)NC(C)(C)C(=O)N[C@H](C(=O)N[C@@H](CCCNC(=N)N)C(=O)N[C@@H](CCC(N)=O)C(=O)N[C@@H](CCCNC(=N)N)C(=O)N[C@@H](Cc1ccc(O)cc1)C(N)=O)[C@@H](C)O [Compound 130, Y-Aib-E-G-T-F-T-S-D-Y-S-I-Aib-L-E-E-E-A-Q-Aib-E-F-V-R-H-L-I-N-K(1,3)-Aib-T-R-Q-R-Y-NH2.C18DA-gGlu-OEG-OEG(1,2)]
700 | 4500 | 400 |  |  |  | CC[C@H](C)[C@H](NC(=O)[C@H](CC(C)C)NC(=O)[C@H](Cc1c[nH]cn1)NC(=O)[C@H](CCCNC(=N)N)NC(=O)[C@@H](NC(=O)[C@H](Cc1ccccc1)NC(=O)[C@H](C)NC(=O)C(C)(C)NC(=O)[C@H](CCC(N)=O)NC(=O)[C@H](C)NC(=O)[C@H](CCC(N)=O)NC(=O)[C@H](CCCCN)NC(=O)[C@H](CCC(=O)O)NC(=O)[C@H](CC(C)C)NC(=O)C(C)(C)NC(=O)[C@@H](NC(=O)[C@H](CO)NC(=O)[C@H](Cc1ccc(O)cc1)NC(=O)[C@H](CC(=O)O)NC(=O)[C@H](CO)NC(=O)[C@@H](NC(=O)[C@H](Cc1ccccc1)NC(=O)[C@@H](NC(=O)CNC(=O)[C@H](CCC(=O)O)NC(=O)C(C)(C)NC(=O)[C@@H](N)Cc1ccc(O)cc1)[C@@H](C)O)[C@@H](C)O)[C@@H](C)CC)C(C)C)C(=O)N[C@@H](CC(N)=O)C(=O)N[C@@H](CCCCNC(=O)COCCOCCNC(=O)CC[C@H](NC(=O)CC[C@H](NC(=O)CC[C@H](NC(=O)CC[C@H](NC(=O)CC[C@H](NC(=O)CCCCCCCCCCCCCCCCC(=O)O)C(=O)O)C(=O)O)C(=O)O)C(=O)O)C(=O)O)C(=O)N[C@@H](CC(C)C)C(=O)N[C@H](C(=O)N[C@@H](CCCNC(=N)N)C(=O)N[C@@H](CCC(N)=O)C(=O)N[C@@H](CCCNC(=N)N)C(=O)N[C@@H](Cc1ccc(O)cc1)C(N)=O)[C@@H](C)O [Compound 7, Y-Aib-E-G-T-F-T-S-D-Y-S-I-Aib-L-E-K-Q-A-Q-Aib-A-F-V-R-H-L-I-N-K(1,3)-L-T-R-Q-R-Y-NH2.C18DA-gGlu-gGlu-gGlu-gGlu-gGlu-OEG(1,2)]
800 |  | 100 | 1100 |  |  | CC[C@H](C)[C@H](NC(=O)[C@H](CC(C)C)NC(=O)[C@H](Cc1c[nH]cn1)NC(=O)[C@H](CCCNC(=N)N)NC(=O)[C@@H](NC(=O)[C@H](Cc1ccccc1)NC(=O)[C@H](C)NC(=O)C(C)(C)NC(=O)[C@H](CCC(N)=O)NC(=O)[C@H](C)NC(=O)[C@H](CCC(N)=O)NC(=O)[C@H](CCCCN)NC(=O)[C@H](CCC(=O)O)NC(=O)[C@H](CC(C)C)NC(=O)C(C)(C)NC(=O)[C@@H](NC(=O)[C@H](CO)NC(=O)[C@H](Cc1ccc(O)cc1)NC(=O)[C@H](CC(=O)O)NC(=O)[C@H](CO)NC(=O)[C@@H](NC(=O)[C@H](Cc1ccccc1)NC(=O)[C@@H](NC(=O)CNC(=O)[C@H](CCC(=O)O)NC(=O)C(C)(C)NC(=O)[C@@H](N)Cc1ccc(O)cc1)[C@@H](C)O)[C@@H](C)O)[C@@H](C)CC)C(C)C)C(=O)N[C@@H](CC(N)=O)C(=O)N[C@@H](CCCCNC(=O)[C@@H](N)CCCCNC(=O)CC[C@H](NC(=O)CC[C@H](NC(=O)CC[C@H](NC(=O)CC[C@H](NC(=O)CC[C@H](NC(=O)CCCCCCCCCCCCCCCCC(=O)O)C(=O)O)C(=O)O)C(=O)O)C(=O)O)C(=O)O)C(=O)NC(C)(C)C(=O)N[C@H](C(=O)N[C@@H](CCCNC(=N)N)C(=O)N[C@@H](CCC(N)=O)C(=O)N[C@@H](CCCNC(=N)N)C(=O)N[C@@H](Cc1ccc(O)cc1)C(N)=O)[C@@H](C)O [Compound 141, Y-Aib-E-G-T-F-T-S-D-Y-S-I-Aib-L-E-K-Q-A-Q-Aib-A-F-V-R-H-L-I-N-K(1,3)-Aib-T-R-Q-R-Y-NH2.C18DA-gGlu-gGlu-gGlu-gGlu-gGlu-eLys(1,2)]
700 |  | 400 | 4400 | 7100 | 19300 | CC[C@H](C)[C@H](NC(=O)[C@H](CC(C)C)NC(=O)[C@H](Cc1c[nH]cn1)NC(=O)[C@H](CCCNC(=N)N)NC(=O)[C@@H](NC(=O)[C@H](Cc1ccccc1)NC(=O)[C@H](CCC(=O)O)NC(=O)C(C)(C)NC(=O)[C@H](CCC(N)=O)NC(=O)[C@H](C)NC(=O)[C@H](CCC(N)=O)NC(=O)[C@H](CCCCN)NC(=O)[C@H](CCC(=O)O)NC(=O)[C@H](CC(C)C)NC(=O)C(C)(C)NC(=O)[C@@H](NC(=O)[C@H](CO)NC(=O)[C@H](Cc1ccc(O)cc1)NC(=O)[C@H](CC(=O)O)NC(=O)[C@H](CO)NC(=O)[C@@H](NC(=O)[C@H](Cc1ccccc1)NC(=O)[C@@H](NC(=O)CNC(=O)[C@H](CCC(=O)O)NC(=O)C(C)(C)NC(=O)[C@@H](N)Cc1ccc(O)cc1)[C@@H](C)O)[C@@H](C)O)[C@@H](C)CC)C(C)C)C(=O)N[C@@H](CC(N)=O)C(=O)N[C@@H](CCCCNC(=O)CC[C@H](NC(=O)CC[C@H](NC(=O)CC[C@H](NC(=O)CC[C@H](NC(=O)CC[C@H](NC(=O)CC[C@H](NC(=O)CCCCCCCCCCCCCCCCC(=O)O)C(=O)O)C(=O)O)C(=O)O)C(=O)O)C(=O)O)C(=O)O)C(=O)NC(C)(C)C(=O)N[C@H](C(=O)N[C@@H](CCCNC(=N)N)C(=O)N[C@@H](CCC(N)=O)C(=O)N[C@@H](CCCNC(=N)N)C(=O)N[C@@H](Cc1ccc(O)cc1)C(N)=O)[C@@H](C)O [Compound 56, Y-Aib-E-G-T-F-T-S-D-Y-S-I-Aib-L-E-K-Q-A-Q-Aib-E-F-V-R-H-L-I-N-K(1,3)-Aib-T-R-Q-R-Y-NH2.C18DA-gGlu-gGlu-gGlu-gGlu-gGlu-gGlu(1,2)]
900 | 4000 | 300 |  | 5000 | 7100 | CC[C@H](C)[C@H](NC(=O)[C@H](CC(C)C)NC(=O)[C@H](Cc1c[nH]cn1)NC(=O)[C@H](CCCNC(=N)N)NC(=O)[C@@H](NC(=O)[C@H](Cc1ccccc1)NC(=O)[C@H](C)NC(=O)C(C)(C)NC(=O)[C@H](CCC(N)=O)NC(=O)[C@H](C)NC(=O)[C@H](CCC(N)=O)NC(=O)[C@H](CCCCN)NC(=O)[C@H](CCC(=O)O)NC(=O)[C@H](CC(C)C)NC(=O)C(C)(C)NC(=O)[C@@H](NC(=O)[C@H](CO)NC(=O)[C@H](Cc1ccc(O)cc1)NC(=O)[C@H](CC(=O)O)NC(=O)[C@H](CO)NC(=O)[C@@H](NC(=O)[C@H](Cc1ccccc1)NC(=O)[C@@H](NC(=O)CNC(=O)[C@H](CCC(=O)O)NC(=O)C(C)(C)NC(=O)[C@@H](N)Cc1ccc(O)cc1)[C@@H](C)O)[C@@H](C)O)[C@@H](C)CC)C(C)C)C(=O)N[C@@H](CC(N)=O)C(=O)N[C@@H](CCCCNC(=O)CC[C@H](NC(=O)CC[C@H](NC(=O)CC[C@H](NC(=O)CC[C@H](NC(=O)CC[C@H](NC(=O)CCCCCCCCCCCCCCCCC(=O)O)C(=O)O)C(=O)O)C(=O)O)C(=O)O)C(=O)O)C(=O)N[C@H](C(=O)N[C@H](C(=O)N[C@@H](CCCNC(=N)N)C(=O)N[C@@H](CCC(N)=O)C(=O)N[C@@H](CCCNC(=N)N)C(=O)N[C@@H](Cc1ccc(O)cc1)C(N)=O)[C@@H](C)O)[C@@H](C)CC [Compound 41, Y-Aib-E-G-T-F-T-S-D-Y-S-I-Aib-L-E-K-Q-A-Q-Aib-A-F-V-R-H-L-I-N-K(1,3)-I-T-R-Q-R-Y-NH2.C18DA-gGlu-gGlu-gGlu-gGlu-gGlu(1,2)]
